Counter-ions that a name gives are not always drawn.
What follows are compounds tested against T1, KRAS G12C (Homo sapiens, UniProt P01116, G12C) (assay: Inhibitory activity on the KRAS G12C nucleotide (GDP-GTP) exchange reaction). Settings: Bodipy FL GDP-bound KRAS G12C 25 nM; preincubation at 25° C. for 4 hours; SOS1 100 nM, GppNHp 1 μM, reaction for 30 minutes.
T1 construct: KRAS G12C (amino acid region: 1-169)
Assay type: biochemical
Summary of the method: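 Bodipy FL-GDP-loaded KRAS G12C (aa 1-169, 25 nM) preincubated with compound 4 h at 25 °C in pH 7.5 Tris buffer, 5% DMSO; exchange started with SOS1 (aa 564-1049, 100 nM) and 1 μM GppNHp for 30 min. Fluorescence change (ex 485/em 520 nm) normalized to DMSO and no-GppNHp controls; IC50 calculated.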

IC50 | SMILES
38 nM | C=CC(=O)N1C[C@@H](NC(=O)c2c(C)nc(CNc3n[nH]c4cc(Cl)c(C(C)(C)C)cc34)n2C)[C@H]1C (relative stereo) [Example 52, N-((2R *, 3R*)-1-acryloyl-2-methylazetidin-3-yl)-2-(((5-(tert-butyl)-6-chloro-1H-indazol-3-yl)amino)methyl)-1,4-dimethyl-1H-imidazole-5-carboxamide]
11 nM | C=CC(=O)N1CC(NC(=O)c2c(F)nc(CNc3n[nH]c4cc(Cl)c(C(C)(C)C)cc34)n2C)C1 [Example 30, N-(1-acryloylazetidin-3-yl)-2-(((5-(tert-butyl)-6-chloro-1H-indazol-3-yl)amino)methyl)-4-fluoro-1-methyl-1H-imidazole-5-carboxamide]
9 nM | C=CC(=O)N1CC(NC(=O)c2c(Cl)nc(CNc3n[nH]c4cc(Cl)c(C(C)(C)C)cc34)n2C2CN(C(C)=O)C2)C1 [Example 108, 1-(1-acetylazetidin-3-yl)-N-(1-acryloylazetidin-3-yl)-2-(((5-(tert-butyl)-6-chloro-1H-indazol-3-yl)amino)methyl)-4-chloro-1H-imidazole-5-carboxamide]
12 nM | C=CC(=O)N1CC(NC(=O)c2c(C)nc(CNc3n[nH]c4cc(Cl)c(C(C)(C)C)cc34)n2CCCC)C1 [Example 18, N-(1-acryloylazetidin-3-yl)-1-butyl 2-(((5-(tert-butyl)-6-chloro-JH-indazol-3-yl)amino)methyl)-4-methyl-JH-imidazole-5-carboxamide]
7 nM | C=CC(=O)N1CC(NC(=O)c2c(C(F)F)nc(CNc3n[nH]c4cc(Cl)c(C(C)(C)C)cc34)n2C2CCN(C)C2)C1 (stereo not drawn) [Example 91, N-(1-acryloylazetidin-3-yl)-2-(((5-(tert-butyl)-6-chloro-1H-indazol-3-yl)amino)methyl)-4-(difluoromethyl)-1-(1-methylpyrrolidin-3-yl)-1H-imidazole-5-carboxamide]
31 nM | C=CC(=O)N1CC(NC(=O)c2c(C)nc(CNc3n[nH]c4cc(Cl)c(C(C)(C)C)cc34)n2C(C)CC)C1 (stereo not drawn) [Example 20, N-(1-acryloylazetidin-3-yl)-1-(sec-butyl)-2-(((5-(tert-butyl)-6-chloro-1H-indazol-3-yl)amino)methyl)-4-methyl-1H-imidazole-5-carboxamide]
4 nM | C=CC(=O)N1CC(NC(=O)c2c(Cl)nc(CNc3n[nH]c4cc(Cl)c(C(C)(C)C)cc34)n2C2CN(C(C)C)C2)C1 [Example 107, N-(1-acryloylazetidin-3-yl)-2-(((5-(tert-butyl)-6-chloro-1H-indazol-3-yl)amino)methyl)-4-chloro-1-(1-isopropylazetidin-3-yl)-1H-imidazole-5-carboxamide]
809 nM | C=CC(=O)N1CC(NC(=O)c2c(Cl)nc(CNc3n[nH]c4cc(Cl)c(C(=C)C(F)(F)F)cc34)n2C(C)C)C1 [Example 43, N-(1-acryloylazetidin-3-yl)-4-chloro-2-(((6-chloro-5-(3,3,3-trifluoroprop-1-en-2-yl)-1H-indazol-3-yl)amino)methyl)-1-isopropyl-1H-imidazole-5-carboxamide]
4 nM | C=CC(=O)N1CC(NC(=O)c2c(C(F)F)nc(CNc3n[nH]c4cc(Cl)c(C(C)(C)C)cc34)n2C2CCN(C(C)=O)C2)C1 (stereo not drawn) [Example 96, 1-(1-Acetylpyrrolidin-3-yl)-N-(1-acryloylazetidin-3-yl)-2-(((5-(tert-butyl)-6-chloro-1H-indazol-3-yl)amino)methyl)-4-(difluoromethyl)-1H-imidazole-5-carboxamide]
13 nM | C=CC(=O)N1CC(NC(=O)c2c(F)nc(CNc3n[nH]c4cc(Cl)c(C(C)(C)C)cc34)n2C(C)C)C1 [Example 34, N-(1-acryloylazetidin-3-yl)-2-(((5-(tert-butyl)-6-chloro-1H-indazol-3-yl)amino)methyl)-4-fluoro-1-isopropyl-1H-imidazole-5-carboxamide]
7 nM | C=CC(=O)N1CC(NC(=O)c2c(C)nc(CNc3n[nH]c4cc(Cl)c(C(C)(C)C)cc34)n2C2CC2)C1 [Example 23, N-(1-acryloylazetidin-3-yl)-2-(((5-(tert-butyl)-6-chloro-1H-indazol-3-yl)amino)methyl)-1-cyclopropyl-4-methyl-1H-imidazole-5-carboxamide]
8 nM | C=CC(=O)N1CC(NC(=O)c2c(Cl)nc(CNc3n[nH]c4cc(Cl)c(C(C)(C)C)cc34)n2C(C)C)C1 [Example 35, N-(1-acryloylazetidin-3-yl)-2-(((5-(tert-butyl)-6-chloro-1H-indazol-3-yl)amino)methyl)-4-chloro-1-isopropyl-1H-imidazole-5-carboxamide]
1560 nM | C=CC(=O)N1CC(NC(=O)c2cnc(C(C)Nc3n[nH]c4cc(Cl)c(C(C)(C)C)cc34)n2C)C1 (stereo not drawn) [Example 4, N-(1-acryloylazetidin-3-yl)-2-(1-((5-(tert-butyl)-6-chloro-1H-indazol-3-yl)amino)ethyl)-1-methyl-1H-imidazole-5-carboxamide]
70 nM | C=CC(=O)N1CC(NC(=O)c2c(C#N)nc(CNc3n[nH]c4cc(Cl)c(C(C)(C)C)cc34)n2C)C1 [Example 28, N-(1-acryloylazetidin-3-yl)-2-(((5-(tert-butyl)-6-chloro-1H-indazol-3-yl)amino)methyl)-4-cyano-1-methyl-1H-imidazole-5-carboxamide]
5480 nM | C=CC(=O)N1CC(NC(=O)c2cnc(CNc3n[nH]c4cc(Cl)c(C)cc34)n2C)C1 [Example 37, N-(1-acryloylazetidin-3-yl)-2-(((6-chloro-5-methyl-1H-indazol-3-yl)amino)methyl)-1-methyl-1H-imidazole-5-carboxamide]
9 nM | C=CCN1CC[C@@H](n2c(CNc3n[nH]c4cc(Cl)c(C(C)(C)C)cc34)nc(Cl)c2C(=O)NC2CN(C(=O)C=C)C2)C1 [Example 123, (R)-N-(1-acryloylazetidin-3-yl)-1-(1-allylpyrrolidin-3-yl)-2-(((5-(tert-butyl)-6-chloro-1H-indazol-3-yl)amino)methyl)-4-chloro-1H-imidazole-5-carboxamide]
9 nM | C=CC(=O)N1CC(NC(=O)c2c(Cl)nc(CNc3n[nH]c4cc(Cl)c(C(C)(C)C)cc34)n2C2CCCN(CC(F)F)C2)C1 (stereo not drawn) [Example 117, N-(1-acryloylazetidin-3-yl)-2-(((5-(tert-butyl)-6-chloro-1H-indazol-3-yl)amino)methyl)-4-chloro-1-(1-(2,2-difluoroethyl)piperidin-3-yl)-1H-imidazole-5-carboxamide]

SMILES | IC50
C=CC(=O)N1CC(NC(=O)c2c(C(F)F)nc(CNc3n[nH]c4cc(Cl)c(C(C)(C)C)cc34)n2C2CCN(C(C)C)C2)C1 (stereo not drawn) [Example 93, N-(1-acryloylazetidin-3-yl)-2-(((5-(tert-butyl)-6-chloro-1H-indazol-3-yl)amino)methyl)-4-(difluoromethyl)-1-(1-isopropylpyrrolidin-3-yl)-1H-imidazole-5-carboxamide formate] | 6 nM
C=CC(=O)N1CC(NC(=O)c2ccc(CNc3n[nH]c4cc(Cl)c(C(C)(C)C)cc34)o2)C1 [Reference Example 2, N-(1-acryloylazetidin-3-yl)-5-(((5-(tert-butyl)-6-chloro-1H-indazol-3-yl)amino)methyl)furan-2-carboxamide, reference compound] | > 10000 nM
C=CC(=O)N1CC(NC(=O)c2c(-c3ccccc3)nc(CNc3n[nH]c4cc(Cl)c(C(C)(C)C)cc34)n2C)C1 [Reference Example 3, N-(1-acryloylazetidin-3-yl)-2-(((5-(tert-butyl)-6-chloro-1H-indazol-3-yl)amino)methyl)-1-methyl-4-phenyl-1H-imidazole-5-carboxamide, reference compound] | > 10000 nM

Each compound was assayed against T2, G12C K-Ras4B (1-169) (Homo sapiens, UniProt P01116, G12C) (assay: Test of compounds to determine whether they bind to KRASG12C (LC-MS compound binding rate)). Settings: final compound concentration of 2 μM, 1 μM protein, 25° C. for 2 hours.
T2 construct: G12C K-Ras4B (1-169)
Protocol: Test Example 1: A Test of Compounds to Determine Whether they Bind to KRASG12C
Test compounds were prepared in the form of a 10 mM DMSO solution.
Wt K-Ras4B (1-169) and G12C K-Ras4B (1-169) proteins were mixed and diluted with a buffer (1×TBS, 0.1 mM TCEP) to prepare individual 1 μM protein solutions. A 10 mM test compound was diluted tenfold with DMSO to make a 1 mM solution, and then diluted fivefold with DMSO to make a 200 μM solution. The 200 μM solution was further diluted fivefold to make a 40 μM solution. When the final compound concentration was […], 1 μL of a 200 μM test compound was added to 19 μL of a 1 μM protein solution. When the final compound concentration was 2 μM, 1 μL of a 40 μM test compound was added to 19 μL of a 1 μM protein solution. The mixtures were stored in an incubator at 25° C. for 2 hours, and 80 μL of a 1×TBS solution containing 0.2% formic acid was added thereto to end the reaction, followed by LC-MS measurement. LC-MS measurement was performed using Xevo G2-S Q-Tof manufactured by Waters, and reverse-phase chromatography was performed with a desalting column. A mass spectrum of positive ions was obtained by electrospray. For a mass spectrum, a spectrum of a polyvalent ion was collectively converted to a molecular weight by using OpenLynx software by the MaxEnt technique, and a compound binding rate was obtained from the ratio of a signal intensity that corresponds to the molecular weight of a protein to a signal intensity that corresponds to the molecular weight of a compound binding to the protein.
By obtaining the compound binding rate for wt K-Ras4B (1-169) and the compound binding rate for G12C K-Ras4B (1-169) at the same time, information of the selectivity for G12C K-Ras4B (1-169) was obtained at the same time.
The test compounds were measured at their final compound concentration of 2 μM. […] Almost none of the compounds of the disclosure bound to wt K-Ras4B (1-169). The “binding rate” (%) for each of wt K-Ras4B (1-169) and G12C K-Ras4B (1-169) refers to the ratio of the signal intensity of bound forms to the sum of the signal intensity of non-bound forms and the signal intensity of bound forms.

SMILES | binding rate for G12C K-Ras4B (1-169)
C=CC(=O)N1CC(NC(=O)c2c(C(F)F)nc(CNc3n[nH]c4cc(Cl)c(C(C)(C)C)cc34)n2C2CCN(C(C)C)C2)C1 (stereo not drawn) [Example 93, N-(1-acryloylazetidin-3-yl)-2-(((5-(tert-butyl)-6-chloro-1H-indazol-3-yl)amino)methyl)-4-(difluoromethyl)-1-(1-isopropylpyrrolidin-3-yl)-1H-imidazole-5-carboxamide formate] | A (a binding rate of 80% or more is rated “A,”)
C=CC(=O)N1CC(NC(=O)c2ccc(CNc3n[nH]c4cc(Cl)c(C(C)(C)C)cc34)o2)C1 [Reference Example 2, N-(1-acryloylazetidin-3-yl)-5-(((5-(tert-butyl)-6-chloro-1H-indazol-3-yl)amino)methyl)furan-2-carboxamide, reference compound] | E (a binding rate of less than 20% is rated “E.”)
C=CC(=O)N1CC(NC(=O)c2c(-c3ccccc3)nc(CNc3n[nH]c4cc(Cl)c(C(C)(C)C)cc34)n2C)C1 [Reference Example 3, N-(1-acryloylazetidin-3-yl)-2-(((5-(tert-butyl)-6-chloro-1H-indazol-3-yl)amino)methyl)-1-methyl-4-phenyl-1H-imidazole-5-carboxamide, reference compound] | E (a binding rate of less than 20% is rated “E.”)
C=CC(=O)N1C[C@@H](NC(=O)c2c(C)nc(CNc3n[nH]c4cc(Cl)c(C(C)(C)C)cc34)n2C)[C@H]1C (relative stereo) [Example 52, N-((2R *, 3R*)-1-acryloyl-2-methylazetidin-3-yl)-2-(((5-(tert-butyl)-6-chloro-1H-indazol-3-yl)amino)methyl)-1,4-dimethyl-1H-imidazole-5-carboxamide] | B (a binding rate of 60% or more and less than 80% is rated “B,”)

Source: patent publication US20230181536A1, “ANTICANCER COMBINATION THERAPY WITH N-(1-ACRYLOYL-AZETIDIN-3-YL)-2-((1H-INDAZOL-3-YL)AMINO)METHYL)-1H-IMIDAZOLE-5-CARBOXAMIDE INHIBITOR OF KRAS-G12C” (TAIHO PHARMACEUTICAL CO., LTD., priority 2020, published 2023)
